Several values for one entry are separate records, joined by “and”; a condition that tells them apart may be missing. Identical values can stand only once.
Assays:
[1] = test system: CHO cell line that expresses an antibody; experiment: Batch experiment with the substances according to the invention (Example 1); type: cell-based, Chinese hamster; settings: batch mode, substance 0.5-1 g/l, basal medium glucose 4.7 g/l, glutamine […]
Experimental: Cells were stored in the gas phase of liquid nitrogen. One to two ampoules were thawed in nutrient medium preheated to 37° C. and transferred to spinner bottles, shaking flasks or T-bottles. In the first few days of cultivation the medium was changed, depending on the clone.
Depending on the clone, cells were split either every second day or every third day or after two and three days alternately into new medium, i.e. a portion of the cell suspension was removed from culture and a smaller portion of the cell suspension was reused as inoculum for the next culture. This inoculum was made up with fresh prewarmed nutrient medium. Cells were incubated at 37° C. in an incubator with a CO2 atmosphere. An alternative for incubating cells was cultivation in an incubation chamber at 37° C., in this way cells were held in culture for several passages. A passage means a cultivation time of two to three days. At various points of time, cell suspension was taken from strain maintenance and used as inoculum for experiments. The experiments were carried out in various cultivation systems, for example in spinner bottles, T-bottles, shaking flasks, culture tubes or in controlled bioreactors.
(§1) Feed took place at regular intervals.

[2] = test system: CHO cell line that expresses an antibody; experiment: Fed-batch experiment with the substances according to the invention (Example 2, Table 2); type: cell-based, Chinese hamster; set-up: Viabil.: concentration or dose not given beside the values
Description: as §1

Work on O=C(O)CC(O)C(=O)O (stereo not drawn) [Malic acid] yielded a Gln ([1]; day 0) of 1.53 mM, a Glucose ([1]; day 0) of 4.69 g/L and a Lactate ([1]; day 0) of 0 g/L. The NH4 ([1]; day 0) was 1.22 mM, the “Specific Glutamin consumption (Gln/VCD)” value ([1]; day 0) was 1.49 and the “Specific ammonia production (NH4/VCD)” value ([1]; day 0) was 1.18. The “Specific glucose consumption (Gluc/VCD)” value ([1]; day 0) was 4.55, the “Specific lactate production (Lac/VCD)” value ([1]; day 0) was 0.00 and the “Total Cell Density TCD” value ([1]; day 0) was 1.07 E5/ml. For the same molecule, the Viabil. ([1]; day 0) was 96%, the “Viable Cell Density (VCD)” value ([1]; day 0) was 1.03 E5/ml and the Gln ([1]; day 3) was 0.67 mM. It also gave a Glucose ([1]; day 3) of 3.9 g/L, a Lactate ([1]; day 3) of 0.85 g/L and an NH4 ([1]; day 3) of 1.9 mM. For the same molecule, the “Specific Glutamin consumption (Gln/VCD)” value ([1]; day 3) was 0.09, the “Specific ammonia production (NH4/VCD)” value ([1]; day 3) was 0.25 and the “Specific glucose consumption (Gluc/VCD)” value ([1]; day 3) was 0.51. The “Specific lactate production (Lac/VCD)” value ([1]; day 3) was 0.11, the “Total Cell Density TCD” value ([1]; day 3) was 7.8 E5/ml and the Viabil. ([1]; day 3) was 97%. For the same molecule, the “Viable Cell Density (VCD)” value ([1]; day 3) was 7.6 E5/ml, the Gln ([1]; day 6) was 0.28 mM and the Glucose ([1]; day 6) was 2.65 g/L. The Lactate ([1]; day 6) was 1.14 g/L, the NH4 ([1]; day 6) was 2.42 mM and the “Specific Glutamin consumption (Gln/VCD)” value ([1]; day 6) was 0.01. The “Specific ammonia production (NH4/VCD)” value ([1]; day 6) was 0.06, the “Specific glucose consumption (Gluc/VCD)” value ([1]; day 6) was 0.06 and the “Specific lactate production (Lac/VCD)” value ([1]; day 6) was 0.03. For the same molecule, the “Total Cell Density TCD” value ([1]; day 6) was 43.4 E5/ml, the Viabil. ([1]; day 6) was 97% and the “Viable Cell Density (VCD)” value ([1]; day 6) was 42.2 E5/ml. The Gln ([1]; day 8) was 0.37 mM, the Glucose ([1]; day 8) was 1.76 g/L and the Lactate ([1]; day 8) was 0.94 g/L. For the same molecule, the NH4 ([1]; day 8) was 2.4 mM, the “Specific Glutamin consumption (Gln/VCD)” value ([1]; day 8) was 0.02 and the “Specific ammonia production (NH4/VCD)” value ([1]; day 8) was 0.10. The “Specific glucose consumption (Gluc/VCD)” value ([1]; day 8) was 0.08, the “Specific lactate production (Lac/VCD)” value ([1]; day 8) was 0.04 and the “Total Cell Density TCD” value ([1]; day 8) was 26.1 E5/ml. The Viabil. ([1]; day 8) was 89%, the “Viable Cell Density (VCD)” value ([1]; day 8) was 23.2 E5/ml and the Gln ([1]; day 11) was 0.44 mM. It also gave a Glucose ([1]; day 11) of 0.47 g/L, a Lactate ([1]; day 11) of 1.2 g/L and an NH4 ([1]; day 11) of 2.75 mM. The “Specific Glutamin consumption (Gln/VCD)” value ([1]; day 11) was 0.03, the “Specific ammonia production (NH4/VCD)” value ([1]; day 11) was 0.16 and the “Specific glucose consumption (Gluc/VCD)” value ([1]; day 11) was 0.03. The “Specific lactate production (Lac/VCD)” value ([1]; day 11) was 0.07, the “Total Cell Density TCD” value ([1]; day 11) was 28.5 E5/ml and the Viabil. ([1]; day 11) was 61%. For the same molecule, the “Viable Cell Density (VCD)” value ([1]; day 11) was 17.5 E5/ml, the “Total Cell Density TCD” value ([2]; day 0, fed-batch) was 1.5 E5/ml and the Viabil. ([2]; day 0, fed-batch) was 91%. The “Viable Cell Density (VCD)” value ([2]; day 0, fed-batch) was 1.37 E5/ml, the “Total Cell Density TCD” value ([2]; day 2, fed-batch) was 3.9 E5/ml and 4.2 E5/ml and the Viabil. ([2]; day 2, fed-batch) was 97% and 98%. The “Viable Cell Density (VCD)” value ([2]; day 2, fed-batch) was 3.8 E5/ml and 4.1 E5/ml, the “Total Cell Density TCD” value ([2]; day 5, fed-batch) was 14.1 E5/ml and 12.8 E5/ml and the Viabil. ([2]; day 5, fed-batch) was 97% and 98%. The “Viable Cell Density (VCD)” value ([2]; day 5, fed-batch) was 13.7 E5/ml and 12.5 E5/ml, the “Total Cell Density TCD” value ([2]; day 8, fed-batch) was 49.1 E5/ml and 45.3 E5/ml and the Viabil. ([2]; day 8, fed-batch) was 91% and 92%. The “Viable Cell Density (VCD)” value ([2]; day 8, fed-batch) was 44.9 E5/ml and 41.6 E5/ml.

NCCC[C@H](N)C(=O)O [Ornithine] was tested, and the Gln ([1]; day 0) was 1.53 mM, the Glucose ([1]; day 0) was 4.69 g/L and the Lactate ([1]; day 0) was 0 g/L. The “Specific Glutamin consumption (Gln/VCD)” value ([1]; day 0) was 1.49, the “Specific ammonia production (NH4/VCD)” value ([1]; day 0) was 1.18 and the “Specific glucose consumption (Gluc/VCD)” value ([1]; day 0) was 4.55. The “Specific lactate production (Lac/VCD)” value ([1]; day 0) was 0.00, the Viabil. ([1]; day 0) was 96% and the Gln ([1]; day 3) was 0.92 mM. The Glucose ([1]; day 3) was 4.24 g/L, the Lactate ([1]; day 3) was 0.71 g/L and the “Specific Glutamin consumption (Gln/VCD)” value ([1]; day 3) was 0.15. The “Specific ammonia production (NH4/VCD)” value ([1]; day 3) was 0.29, the “Specific glucose consumption (Gluc/VCD)” value ([1]; day 3) was 0.67 and the “Specific lactate production (Lac/VCD)” value ([1]; day 3) was 0.11. It also gave a Viabil. ([1]; day 3) of 97%, a Gln ([1]; day 6) of 0.11 mM and a Glucose ([1]; day 6) of 2.7 g/L. For the same molecule, the “Specific Glutamin consumption (Gln/VCD)” value ([1]; day 6) was 0.00, the “Specific ammonia production (NH4/VCD)” value ([1]; day 6) was 0.06 and the “Specific glucose consumption (Gluc/VCD)” value ([1]; day 6) was 0.06. For the same molecule, the “Specific lactate production (Lac/VCD)” value ([1]; day 6) was 0.02, the Viabil. ([1]; day 6) was 98% and the Gln ([1]; day 8) was 0.37 mM. The “Specific Glutamin consumption (Gln/VCD)” value ([1]; day 8) was 0.02, the “Specific ammonia production (NH4/VCD)” value ([1]; day 8) was 0.14 and the “Specific glucose consumption (Gluc/VCD)” value ([1]; day 8) was 0.09. For the same molecule, the “Specific lactate production (Lac/VCD)” value ([1]; day 8) was 0.05, the Viabil. ([1]; day 8) was 89% and the Gln ([1]; day 11) was 0.46 mM. The Glucose ([1]; day 11) was 0.53 g/L, the Lactate ([1]; day 11) was 1.26 g/L and the “Specific Glutamin consumption (Gln/VCD)” value ([1]; day 11) was 0.03. For the same molecule, the “Specific ammonia production (NH4/VCD)” value ([1]; day 11) was 0.22, the “Specific glucose consumption (Gluc/VCD)” value ([1]; day 11) was 0.04 and the “Specific lactate production (Lac/VCD)” value ([1]; day 11) was 0.09. The Viabil. ([1]; day 11) was 60%, the Viabil. ([2]; day 0, fed-batch) was 91% and the Viabil. ([2]; day 2, fed-batch) was 98% and 97%. For the same molecule, the Viabil. ([2]; day 5, fed-batch) was 96% and the Viabil. ([2]; day 8, fed-batch) was 94%.
